Measured values taken from patent US9902701B2, “Pyridazones and triazinones for treatment and prophylaxis of hepatitis B virus infection” (priority 2014, dated 2018).

Test system: HBsAg
Test: HBsAg assay: chemiluminescence immunoassay (CLIA) of secreted HBsAg in supernatant of HepG2.2.15 cells
Format: cell-based, HBV
Settings: Hepatitis B virus
Protocol: HepG2.2.15 cells (Acs et al. Proc Natl Acad Sci USA, 84, (1987), 4641-4), a constitutively HBV-expressing cell line were cultured in DMEM+Glutamax-I medium (Invitrogen, Carlsbad, Calif., USA), supplemented with 10% fetal bovine serum (Invitrogen) and G418 (Invitrogen) at a final concentration of 200 mg/L and maintained in 5% CO2 at 37° C.
HepG2.2.15 cells were seeded in duplicate into white, 96-well plates at 1.5×10^4 cells/well. The cells were treated with a three-fold serial dilution series of the compounds in DMSO. The final DMSO concentration in all wells was 1% and DMSO was used as no drug control.
The HBsAg chemiluminescence immunoassay (CLIA) kit (Autobio Diagnostics Co., Zhengzhou, China, Catalog number: CL0310-2) was used to measure the levels of secreted HBV antigens semi-quantitatively. For the detection 50 μL/well culture supernatant was used and HBsAg was quantified using HBsAg chemiluminescence immunoassay (CLIA) kit (Autobio Diagnostics Co., Zhengzhou, China, Catalog number: CL0310-2), 50 μL of the supernatant was transferred to the CLIA assay plate and 50 μL of enzyme conjugate reagent was added into each well. The plates were sealed and gently agitated for 1 hour at room temperature. The supernatant-enzyme-mixture was discarded and wells were washed 6 times with 300 μL of PBS. The residual liquid was removed by plating the CLIA plate […] on absorbent tissue paper. 25 μL of substrates A and B were added to each well. Luminance was measured using a luminometer (Mithras LB 940 Multimode Microplate Reader) after 10 minutes incubation. Dose-response curves were generated and the IC50 value was extrapolated by using the E-WorkBook Suite (ID Business Solutions Ltd., Guildford, UK). The IC50 was defined as the compound concentration (or conditioned media log dilution) at which HBsAg secretion was reduced by 50% compared to the no drug control.

Question: How did the IC50 turn out when `CN(C(=O)CN1N=C(c2ccc(C#N)cc2)CCC1=O)c1ccc(Cl)cc1` [Example 1-55, N-(4-Chlorophenyl)-2-[3-(4-cyanophenyl)-6-oxo-4,5-dihydropyridazin-1-yl]-N-methyl-acetamide] was run?
Answer: 3.82 µM

Question: `CN(C(=O)CN1N=C(c2ccc(F)cc2)CCC1=O)c1ccccc1` [Example 1-47, 2-[3-(4-Fluorophenyl)-6-oxo-4,5-dihydropyridazin-1-yl]-N-methyl-N-phenyl-acetamide] was tested. Which IC50 did it give?
Answer: 8.93 µM

Question: `Cc1cc(Cl)ccc1C1=NN(CC(=O)N(C)c2cccc(Cl)c2)C(=O)CC1` [Example 1-27, 2-[3-(4-Chloro-2-methyl-phenyl)-6-oxo-4,5-dihydropyridazin-1-yl]-N-(3-chlorophenyl)-N-methyl-acetamide] was tested. Which IC50 did it give?
Answer: 0.814 µM

Question: How did the IC50 turn out when `CN(C(=O)CN1N=C(c2ccc(Cl)cc2)CCC1=O)c1cccc(F)c1` [Example 1-17, 2-[3-(4-Chlorophenyl)-6-oxo-4,5-dihydropyridazin-1-yl]-N-(3-fluorophenyl)-N-methyl-acetamide] was run?
Answer: 1.17 µM

Question: `CN(C(=O)CN1N=C(c2ccc(F)cc2)CCC1=O)c1ccc(Cl)cc1` [Example 1-48, N-(4-Chlorophenyl)-2-[3-(4-fluorophenyl)-6-oxo-4,5-dihydropyridazin-1-yl]-N-methyl-acetamide] was tested. Which IC50 did it give?
Answer: 1.88 µM

Question: Which IC50 does the source give for `CN(C(=O)CN1N=C(c2ccc(Br)cc2)CCC1=O)c1ccc(Cl)cc1` [Example 1-50, 2-[3-(4-Bromophenyl)-6-oxo-4,5-dihydropyridazin-1-yl]-N-(4-chlorophenyl)-N-methyl-acetamide] here?
Answer: 1.23 µM

Question: With `CN(C(=O)CN1N=C(c2ccc(F)cc2F)CCC1=O)c1ccc(F)c(C(F)(F)F)c1` [Example 1-32, 2-[3-(2,4-Difluorophenyl)-6-oxo-4,5-dihydropyridazin-1-yl]-N-[4-fluoro-3-(trifluoromethyl)phenyl]-N-methyl-acetamide] as the compound, how does the IC50 read?
Answer: 0.513 µM

Question: For `CN(C(=O)CN1N=C(c2ccc(Cl)cc2)CCC1=O)c1ccc(C(F)(F)F)cc1` [Example 1-9, 2-[3-(4-Chlorophenyl)-6-oxo-4,5-dihydropyridazin-1-yl]-N-methyl-N-[4-(trifluoromethyl)phenyl]acetamide], which IC50 is on record?
Answer: 0.389 µM

Question: For `CN(C(=O)CN1N=C(c2ccc(Cl)cc2)CCC1=O)c1ccc(C#N)cc1` [Example 1-10, 2-[3-(4-Chlorophenyl)-6-oxo-4,5-dihydropyridazin-1-yl]-N-(4-cyanophenyl)-N-methyl-acetamide], which IC50 is on record?
Answer: 5.63 µM

Question: Which IC50 does the source give for `CCCCCN(C)C(=O)c1ccc(N(C)C(=O)CN2N=C(c3ccc(Cl)cc3)CCC2=O)cc1` [Example 1-14, 4-[[2-[3-(4-Chlorophenyl)-6-oxo-4,5-dihydropyridazin-1-yl]acetyl]-methyl-amino]-N-methyl-N-pentyl-benzamide] here?
Answer: 3.02 µM

Question: Which IC50 does the source give for `CN(C(=O)CN1N=C(c2ccc(Cl)cc2)CCC1=O)c1ccc(F)c(C(F)(F)F)c1` [Example 1-2, 2-[3-(4-Chlorophenyl)-6-oxo-4,5-dihydropyridazin-1-yl]-N-[4-fluoro-3-(trifluoromethyl)phenyl]-N-methyl-acetamide] here?
Answer: 0.74 µM

Question: Which IC50 does the source give for `CN(C(=O)CN1N=C(c2ccc(F)cc2F)CCC1=O)c1cccc(F)c1` [Example 1-34, 2-[3-(2,4-Difluorophenyl)-6-oxo-4,5-dihydropyridazin-1-yl]-N-(3-fluorophenyl)-N-methyl-acetamide] here?
Answer: 1.25 µM

Question: Which IC50 does the source give for `COc1cccc(N(C)C(=O)CN2N=C(c3ccc(Cl)cc3)CCC2=O)c1` [Example 1-5, 2-[3-(4-Chlorophenyl)-6-oxo-4,5-dihydropyridazin-1-yl]-N-(3-methoxyphenyl)-N-methyl-acetamide] here?
Answer: 9.63 µM

Question: How did the IC50 turn out when `COC(=O)c1ccc(N(C)C(=O)CN2N=C(c3ccc(Cl)cc3)CCC2=O)cc1` [Example 1-11, Methyl 4-[[2-[3-(4-chlorophenyl)-6-oxo-4,5-dihydropyridazin-1-yl]acetyl]-methyl-amino]benzoate] was run?
Answer: 8.74 µM

Question: How did the IC50 turn out when `CN(C(=O)CN1N=C(c2ccc(Br)cc2)CCC1=O)c1ccc(C(F)(F)F)cc1` [Example 1-51, 2-[3-(4-Bromophenyl)-6-oxo-4,5-dihydropyridazin-1-yl]-N-methyl-N-[4-(trifluoromethyl)phenyl]acetamide] was run?
Answer: 1.16 µM
